Measurements published in patent publication US20180171411A1, “GFRalpha1 AS A BIOMARKER FOR CISPLATIN-INDUCED CHEMORESISTANCE AND METASTASIS” (THE BOARD OF REGENTS OF THE UNIVERSITY OF TEXAS SYSTEM, priority 2015, published 2018).

Test system: MG-63 cells
Experiment: Transmission electron microscopy of autophagic vacuoles
Assay type: cell-based, human
Conditions: control MG-63 cells; cisplatin 20 μM, 24 hr
Experimental: FIG. 3. GFRα1-induced autophagy enhances the chemoresistance of osteosarcoma cells induced by cisplatin. (a) Control and GFRα1-deficient MG-63 cells were transiently transfected with a mRFP-GFP tandem fluorescent-tagged LC3 (mRFP-GFP-LC3) vector and then treated with cisplatin (20μM) for 24 hr. Left, representative images of RFP-LC3 and GFP-LC3 puncta. Scale bar, 20 μm. Right, quantitative analysis of the number of yellow puncta and the number of RFP-LC3 puncta in the combined images. The values are represented as a mean±s.d.m. (n=3). ** denotes p<0.05 by t-test. (b) Control and GFRα1-deficient MG-63 cells were treated with cisplatin (20 μM) for 24 hr and then stained with acridine orange. […] Bottom, quantitative analysis of the number of AVOs. […] (c) Control and GFRα1-deficient MG-63 cells were treated with cisplatin (20 μM) for 24 hr and then analyzed by TEM. Top, representative images of autophagic vacuoles (yellow arrows) detected after cisplatin treatment in control MG-63 cells. […] Bottom, quantitative analysis of the number of autophagic vacuoles. […] (e) Quantitative analysis of the number of yellow puncta and the number of RFP-LC3 puncta in control and GFRα1-overexpressing MG-63 cells. […] Bottom, quantitative analysis of the number of AVOs. […] (h) Control and GFRα1-overexpressing MG-63 cells were treated with cisplatin (20 μM) for 24 hr and then analyzed by TEM. […]

`N.N.[Cl][Pt][Cl]` [cisplatin, Cis-Diamineplatinum(II) dichloride] was tested. Which “number of autophagic vacuoles per cell” value did it give?
Its value is “markedly increased”.
